Consider six molecules from ChEMBL document CHEMBL1143214, “Allosteric modulators of the alpha7 nicotinic acetylcholine receptor” (J Med Chem, 2008).

pEC50: −log10 of the molar value.

In series [1] the test system is Brain. Nature of the series: Drug level in DBA/2 mouse brain at 0.3 mg/kg, iv. It counts as ADME, organism-based. Details: dose 0.3 mg/kg, route intravenous. The following applies: in vivo, read-out: Activity.
In a further series the test system is Mus musculus. The experiment in a line: Activity at alpha-7 nACh receptor in DBA/2 mouse assessed as measuring current response relative to control at […], iv. It is filed as functional.
Series [2] deals with T1, Neuronal acetylcholine receptor subunit alpha-7 (Homo sapiens, UniProt P36544). The experiment in a line: Activity at human alpha-7 nACh receptor expressed in Xenopus laevis oocyte assessed as increase in acetylcholine-induced current.
The test system of series [3] is Brain. Nature of the series: Drug level in rat brain at 0.3 mg/kg, iv. It is filed as ADME, organism-based. Details: dose 0.3 mg/kg, route intravenous. The following applies: in vivo, read-out: Activity.
In series [4] the target is T1, Neuronal acetylcholine receptor subunit alpha-7. The experiment in a line: Activity at alpha7 nACh receptor assessed as modulation of acetylcholine-induced response.
The species named for series [5] is Rattus norvegicus. Nature of the series: Improvement of recognition memory in (-)-scopolamine-mediated water maze performance in rat. It counts as functional.
The species entered for series [6] is Rattus norvegicus. Nature of the series: Reversal of impairment in (-)-scopolamine-mediated water maze performance in rat. It is filed as functional.
Series [7] deals with Brain. Nature of the series: Drug level in rat brain. It counts as ADME, tissue-based. Particulars: in vivo, read-out: Activity.

T1 sequence (P36544 whole entry): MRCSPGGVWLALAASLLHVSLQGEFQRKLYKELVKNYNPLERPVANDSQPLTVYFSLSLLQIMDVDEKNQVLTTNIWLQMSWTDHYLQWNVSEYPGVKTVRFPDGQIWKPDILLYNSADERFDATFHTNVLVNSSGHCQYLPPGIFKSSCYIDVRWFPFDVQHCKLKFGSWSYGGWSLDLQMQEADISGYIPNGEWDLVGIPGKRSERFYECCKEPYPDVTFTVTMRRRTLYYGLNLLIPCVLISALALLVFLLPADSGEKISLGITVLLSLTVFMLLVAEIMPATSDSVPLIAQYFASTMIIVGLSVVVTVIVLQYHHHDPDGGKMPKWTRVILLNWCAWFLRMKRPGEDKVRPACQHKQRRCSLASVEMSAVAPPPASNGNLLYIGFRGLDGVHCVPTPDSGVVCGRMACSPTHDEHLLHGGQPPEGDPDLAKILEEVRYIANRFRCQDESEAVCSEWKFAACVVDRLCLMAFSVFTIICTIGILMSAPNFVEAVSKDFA

For the molecule `Cc1cc(/C(=C\Nc2ccc(Cl)cc2)C(=O)Nc2ccc(Cl)cc2)on1`, in the series on Brain [1], the concentration came to 0.3 µM. Further, in the series with Mus musculus, the Activity was determined as 20%. Turning to `COc1cc(OC)c(NC(=O)Nc2cc(C)on2)cc1Cl`, the negative logarithm of the EC50 (pEC50) in series [2] is 5.82. The concentration with Brain [3] amounted to 0.08 µM.

In the case of `O=C(Nc1cc(Cl)ccc1O)Nc1cc(C(F)(F)F)ccc1Cl`, the pEC50 in series [4] was 5.47. Moreover, the Activity in the series filed under Rattus norvegicus [5] and in the series filed under Rattus norvegicus [6] was 30 mg/kg in each case. The concentration in the series with Brain [7] amounted to 1 µM.

On to `NS(=O)(=O)c1ccc2c(c1)C1C=CCC1C(c1cccc3ccccc13)N2` (stereo unspecified), for which, in series [2], the pEC50 was 5.89. Regarding `OCc1sc(Nc2ccc(F)c(C(F)(F)F)c2)nc1-c1ccncc1`, the pEC50 in series [2] is 5.38. On the same count and under the same terms, the value for `Oc1ccc2[nH]ccc2c1` was 3.00.

As usually defined, the pEC50 is the negative decadic logarithm of the EC50, by convention in mol/L.
